# Measurements from US20120071493A1, “SUBSTITUTED 8-SULFONYL-2,3,4,5-TETRAHYDRO-1H-GAMMA-CARBOLINES, LIGANDS AND PHARMACEUTICAL COMPOSITION; METHOD FOR THE PRODUCTION AND USE OF SAME” (priority 2009, published 2012).
# Where a name gives a salt, the structure may show the parent alone.
# How the values were obtained:
# [1] = target: T1, recombinant human 5-HT6 receptor (Homo sapiens, UniProt P50406); assay: Antagonistic activity towards serotonin 5-HT6 receptors, cAMP cell function experiment; format: cell-based; conditions: HEK 293 cells expressing recombinant human 5-HT6 receptor; cAMP response to 10 μM serotonin; read-out: IC50, ability to block serotonin 5-HT6 receptors in the setting of cell function experiments
# T1 construct: host or cells: HEK 293 cells with tetracycline-induced T-Rex system (Invitrogen)
# T1 sequence (P50406 whole entry): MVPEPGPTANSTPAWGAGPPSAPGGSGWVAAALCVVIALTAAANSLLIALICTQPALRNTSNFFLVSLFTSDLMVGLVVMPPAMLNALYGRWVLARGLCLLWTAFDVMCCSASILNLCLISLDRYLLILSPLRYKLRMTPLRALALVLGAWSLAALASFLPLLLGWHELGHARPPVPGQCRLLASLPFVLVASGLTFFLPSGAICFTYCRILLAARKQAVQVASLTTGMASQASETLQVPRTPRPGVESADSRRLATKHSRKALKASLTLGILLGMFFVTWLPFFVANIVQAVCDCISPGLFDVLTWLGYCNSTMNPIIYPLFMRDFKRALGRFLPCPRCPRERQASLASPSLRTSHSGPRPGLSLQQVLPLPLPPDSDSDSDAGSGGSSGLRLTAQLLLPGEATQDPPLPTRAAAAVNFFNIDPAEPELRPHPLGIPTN
# Description: Determination of antagonistic activity of substituted 8-sulfonyl-2,3,4,5-tetrahydro-1H-γ-carbolines of the general formula 1 towards serotonin 5-HT6 receptors. HEK 293 cells with tetracycline-induced T-Rex system (Invitrogen, USA) consistently expressing recombinant human 5-HT6 receptor, production of Etogen Scientific (USA), were used. The cells were grown in DMEM/10% FBS/1% AAS medium with Blasticidine S and Zeocin (both—Invitrogen, USA). According to the method worked up by the producer of T-Rex system tetracycline hydrochloride was added to the medium with the cells for the purpose of activation of 5-HT6 receptor expression. The cells were embedded in 96-well plates (30,000-40,000 cells per well) and incubated in 5%-CO2 incubator at 37° C. for 24 hs. Before experiments cells medium was replaced by Hank's balanced salt solution (HBSS), comprising 0.137 M NaCl, 5.4 mM KCl, 0.25 mM Na2HPO4, 0.44 mM KH2PO4, 1.3 mM CaCl2, 1.0 mM MgSO4, 5 mM HEPES (pH 7.4), 0.05% BSA and 1 mM IBMX. The tested compounds of general formula 1 were added to the cells in various concentrations. After incubation of the cells for 15 min at room temperature serotonin was added to them up to final concentration of 10 μM and incubation was continued for 30 min. The newly formed cAMP was determined by reagent kit LANCE cAMP Kit, according to the method described by the kit manufacturer […] (PerkinElmer, CIIIA). […] The data given testify that novel γ-carbolines of the general formula 1 are effective serotonin 5-HT6 receptor antagonists. Some of γ-carbolines of the general formula 1 have IC50<0.5 μM in the setting of cell function experiments (IC50—antagonist concentration blocking 5-HT6 receptors for 50%).
# male mice of BALB/c line = assay: Mice Behavior in the Elevated Plus Maze test; format: in vivo
# Description: The experiments were carried out in aged male mice of BALB/c line weighing about 25 g. Animals were housed 5-7 per cage with water and food available. None of animals was acquainted with experimental set-up before. Each experimental group included 8 animals.
# The procedure used was described earlier by Lister (Lister R. G. The use of a plus-maze to measure anxiety in the mouse. Psychopharmacology, 1987; 92:180-185). Plexiglass set-up consisted of two opened arms of 30×5 cm size and two closed arms of 30×5×15 cm size was used. Side arms were closed with transparent plexiglass and were connected with central zone via platform of 5×5 cm size. Opened arms, central platform and floor were made of black plexiglass. The set-up was mounted on a metallic base which was placed 38.5 cm above floor level.
# Animals were injected intraperitoneally with placebo, Buspirone (5 mg/kg, 30 minutes before training), Lorazepam (0.05 mg/kg, 60 minutes before training) or with one of the compounds of the general formula 1, for example, compound 1.1.1(4).HCl or compound 1.2.1(3).HCl in doses 0.05 mg/kg and 0.2 mg/kg. Buspirone and Lorazepam were introduced in maximal effective dose, at which side sedative effect and general decrease of exploratory activity (number of arm entries during the test) were not observed yet.
# Each mouse was placed in maze center with its head towards the opened arm. Over a period of 5 minutes the sequence and duration of arm entries were registered by means of computer program. Criterion for entry is location of all animal's paws inside the arm at the same time. Index of preference was calculated as ratio of the time spent by animal in opened arms as well as the number of entries into opened arms to the total time spent by it in opened and closed arms or, respectively, to the whole number of entries to arms of both types. The number of defecations left by mouse was regarded as additional parameter characterizing anxiety state.
# male mice of SHK line = assay: Novel Object Recognition test, Scopolamine-disturbed recognition; format: in vivo; conditions: Scopolamine 1 mg/kg
# Description: The test was carried out in aged male mice of SHK line. Plexiglass plus maze, consisted of 4 dead-end chambers (numbered 1, 2, 3, 4), joined together through the fifth central chamber, was used in experiments. Mouse was placed into central chamber and allowed to explore the maze. Floor was cleaned after each animal. The sequence of chamber entries and duration of visits were registered by observer. Test was ended after 13 entries into dead-end chambers. Criterion for entry was location of all animal's paws inside the chamber at the same time.
# During the training an animal was placed in the maze with one equiform bowl in each side chamber. In the course of testing (one hour after training) two opposite standing bowls were replaced by identical flasks, and animal was allowed to explore the maze. The time spent by animal in each side chamber was registered during the periods of training and testing. Index of novel object recognition was calculated as ratio of time spent by animal in side chambers with novel objects to the total time spent by it in all side chambers. In comparison with the training phase the appearance of novel object extends the time spent by animal in the chamber with novel object (so-called effect of novel object recognition). The recognition of novel objects was disturbed under action of Scopolamine administered in 1 mg/kg dose intraperitoneally 30 minutes before training, and recognition index was decreased.
Compound,IC50 [1] [µM],other results
CN1CCc2[nH]c3ccc(S(=O)(=O)c4cccnc4)cc3c2C1 [1.1(1)•2HCl],0.085,
CN1CCc2[nH]c3ccc(S(=O)(=O)c4ccncc4)cc3c2C1 [1.1(2)•2HCl],6.9,
"Cc1ccc(S(=O)(=O)n2c3c(c4cc(S(=O)(=O)c5ccccc5)ccc42)CN(C)CC3)cc1 [1.1(10)•HCl, 2-Methyl-5-(4-methylphenylsulfonyl)-8-(phenylsulfonyl)-2,3,4,5-tetrahydro-1H-γ-caboline hydrochloride]",~10,
CN1CCc2c(c3cc(S(=O)(=O)c4ccccc4)ccc3n2CCc2ccccn2)C1 [1.1(16)•2HCl],0.615,
CN1CCc2[nH]c3ccc(S(=O)(=O)c4cccc(F)c4)cc3c2C1 [1.1.1(3)•HCl],0.085,
"CN1CCc2[nH]c3ccc(S(=O)(=O)N(C)C)cc3c2C1 [1.2(1), N,N,2-Trimethyl-2,3,4,5-tetrahydro-1H-γ-carboline-8-sulfonamide]",~10,
O=S(=O)(Nc1cccc(F)c1)c1ccc2[nH]c3c(c2c1)CN(Cc1ccccc1)CC3 [1.2(6)•HCl],0.022,
CN1CCN(S(=O)(=O)c2ccc3[nH]c4c(c3c2)CN(C)CC4)CC1 [1.2(10)],62,
"O=C1CC2(CCCC2)CC(=O)N1CCCCN1CCN(c2ncccn2)CC1 [Buspirone, reference compound]",,"anxiolytic effect in elevated plus maze (male mice of BALB/c line; 5 mg/kg intraperitoneally, 30 minutes before training): well-marked anxiolytic effect"
"Cc1ccc2c(c1)c1c(n2CCc2ccc(C)nc2)CCN(C)C1 [Dimebon, reference compound]",,prevention of Scopolamine influence on novel object recognition (male mice of SHK line; 0.1 mg/kg intraperitoneally 5 minutes before training): could be prevented
"O=C1Nc2ccc(Cl)cc2C(c2ccccc2Cl)=NC1O (stereo not drawn) [Lorazepam, reference compound]",,"anxiolytic effect in elevated plus maze (male mice of BALB/c line; 0.05 mg/kg intraperitoneally, 60 minutes before training): well-marked anxiolytic effect"
"Nc1c2c(nc3ccccc13)CCCC2 [Tacrine, reference compound]",,prevention of Scopolamine influence on novel object recognition (male mice of SHK line; 10 mg/kg intraperitoneally 30 minutes before training): could be prevented
